Like-named read-outs stand apart in the source and are kept apart here.
Legend:
Type in all cases: cell-based, mouse
[1] = tested on: β-galactosidase in CMV-LacZ C2C12 myotubes; experiment: CMV-LacZ secondary screen in C2C12 myotubes (β-Gal stabilizing assay); settings: for fold induction at 5 µM / fold induction at 10 µM / fold induction at 20 µM / fold induction at 40 µM: Mus musculus; for fold induction at 5 µM: C2C12, read-out: CMV-LACZ in Myotubes, signal relative to DMSO, 5 uM; for fold induction at 5 µM / fold induction at 10 µM / fold induction at 20 µM / fold induction at 40 µM / CMV-LACZ in Myotubes, signal relative to DMSO: C2C12 CMV-LacZ myotubes, fold relative to DMSO; for fold induction at 10 µM: C2C12, read-out: CMV-LACZ in Myotubes, signal relative to DMSO, 10 uM; for fold induction at 20 µM: C2C12, read-out: CMV-LACZ in Myotubes, signal relative to DMSO, 20 uM; for fold induction at 40 µM: C2C12, read-out: CMV-LACZ in Myotubes, signal relative to DMSO, 40 uM; for CMV-LACZ in Myotubes (β-galactosidase activity relative to DMSO): CMV-LacZ C2C12 myotubes, 96-well format
In short: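 Stable CMV-LacZ C2C12 clone; six-point curve 0.5–40 μM; duplicates.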

[2] = tested on: α7 integrin (LacZ reporter in α7+/LacZ myotubes); experiment: Myotube α7 integrin FDG assay (Burkin assay in myotubes, 96-well); settings: myotubes; for fold induction at 0.5 µM / fold induction at 1 µM / fold induction at 5 µM / fold induction at 10 µM / fold induction at 20 µM / fold induction at 40 µM: Mus musculus, Myotube
[3] = tested on: α7 integrin (LacZ reporter in α7βgal+/− myoblasts); experiment: Myoblast α7+/LacZ integrin FDG assay (Burkin assay in myoblasts, 96-well); settings: α7+/LacZ myoblasts, 96-well; for fold induction at 0.5 µM / fold induction at 1 µM / fold induction at 5 µM / fold induction at 10 µM / fold induction at 20 µM / fold induction at 40 µM: Mus musculus, Myoblast, 48 h

Nc1nccc(-c2ccc(-n3cnc4ccccc43)cc2)n1 [MLS000763405-01]
fold induction at 5 µM [1]: 1.05
fold induction at 10 µM [1]: 0.876
fold induction at 20 µM [1]: 0.824
fold induction at 40 µM [1]: 0.802
fold induction at 0.5 µM ([2]; 0.5 uM, read-out: Burkin Assay in Myotubes, α7 integrin LacZ reporter signal relative to DMSO): 1.03
fold induction at 1 µM ([2]; 1 uM, read-out: Burkin Assay in Myotubes, α7 integrin LacZ reporter signal relative to DMSO): 1.14
fold induction at 5 µM ([2]; 5 uM, read-out: Burkin Assay in Myotubes, α7 integrin LacZ reporter signal relative to DMSO): 1.21
fold induction at 10 µM ([2]; 10 uM, read-out: Burkin Assay in Myotubes, α7 integrin LacZ reporter signal relative to DMSO): 1.11
fold induction at 20 µM ([2]; 20 uM, read-out: Burkin Assay in Myotubes, α7 integrin LacZ reporter signal relative to DMSO): 1.45
fold induction at 40 µM ([2]; 40 uM, read-out: Burkin Assay in Myotubes, α7 integrin LacZ reporter signal relative to DMSO): 1.38
fold induction at 0.5 µM ([3]; 0.5 uM, read-out: Burkin Assay in Myoblasts, signal relative to DMSO): 0.961
fold induction at 1 µM ([3]; 1 uM, read-out: Burkin Assay in Myoblasts, signal relative to DMSO): 1.03
fold induction at 5 µM ([3]; 5 uM, read-out: Burkin Assay in Myoblasts, signal relative to DMSO): 1.46
fold induction at 10 µM ([3]; 10 uM, read-out: Burkin Assay in Myoblasts, signal relative to DMSO): 1.53
fold induction at 20 µM ([3]; 20 uM, read-out: Burkin Assay in Myoblasts, signal relative to DMSO): 1.47
fold induction at 40 µM ([3]; 40 uM, read-out: Burkin Assay in Myoblasts, signal relative to DMSO): 1.08

O=C(NC1CCCC1)c1ccc(CS(=O)(=O)Cc2ccccc2F)o1 [MLS001030746-01]
CMV-LACZ in Myotubes (β-galactosidase activity relative to DMSO) ([1]; 5 uM): 0.9791
CMV-LACZ in Myotubes (β-galactosidase activity relative to DMSO) ([1]; 10 uM): 0.8757
CMV-LACZ in Myotubes (β-galactosidase activity relative to DMSO) ([1]; 20 uM): 1.098
CMV-LACZ in Myotubes (β-galactosidase activity relative to DMSO) ([1]; 40 uM): 0.9912
Burkin Assay in Myotubes (signal relative to DMSO) ([2]; 0.5 uM): 1.047
Burkin Assay in Myotubes (signal relative to DMSO) ([2]; 1 uM): 0.9692
Burkin Assay in Myotubes (signal relative to DMSO) ([2]; 5 uM): 1.031
Burkin Assay in Myotubes (signal relative to DMSO) ([2]; 10 uM): 0.9496
Burkin Assay in Myotubes (signal relative to DMSO) ([2]; 20 uM): 0.9886
Burkin Assay in Myotubes (signal relative to DMSO) ([2]; 40 uM): 1.067
Burkin Assay in Myoblasts, value relative to DMSO ([3]; 0.5 uM): 0.9195
Burkin Assay in Myoblasts, value relative to DMSO ([3]; 1 uM): 0.8373
Burkin Assay in Myoblasts, value relative to DMSO ([3]; 5 uM): 1.069
Burkin Assay in Myoblasts, value relative to DMSO ([3]; 10 uM): 1.073
Burkin Assay in Myoblasts, value relative to DMSO ([3]; 20 uM): 0.9338
Burkin Assay in Myoblasts, value relative to DMSO ([3]; 40 uM): 0.9637

O=C(Nc1cc(Br)ccc1O)C1CC(c2ccccc2Cl)=NO1 (stereo not shown) [MLS001202627-01]
CMV-LACZ in Myotubes (β-galactosidase activity relative to DMSO) ([1]; 5 uM): 0.9234
CMV-LACZ in Myotubes (β-galactosidase activity relative to DMSO) ([1]; 10 uM): 0.9555
CMV-LACZ in Myotubes (β-galactosidase activity relative to DMSO) ([1]; 20 uM): 0.9345
CMV-LACZ in Myotubes (β-galactosidase activity relative to DMSO) ([1]; 40 uM): 0.735
Burkin Assay in Myotubes (signal relative to DMSO) ([2]; 0.5 uM): 0.9687
Burkin Assay in Myotubes (signal relative to DMSO) ([2]; 1 uM): 0.7692
Burkin Assay in Myotubes (signal relative to DMSO) ([2]; 5 uM): 1.025
Burkin Assay in Myotubes (signal relative to DMSO) ([2]; 10 uM): 0.8124
Burkin Assay in Myotubes (signal relative to DMSO) ([2]; 20 uM): 0.9394
Burkin Assay in Myotubes (signal relative to DMSO) ([2]; 40 uM): 0.2335
Burkin Assay in Myoblasts, value relative to DMSO ([3]; 0.5 uM): 1.172
Burkin Assay in Myoblasts, value relative to DMSO ([3]; 1 uM): 1.081
Burkin Assay in Myoblasts, value relative to DMSO ([3]; 5 uM): 0.9923
Burkin Assay in Myoblasts, value relative to DMSO ([3]; 10 uM): 0.7739
Burkin Assay in Myoblasts, value relative to DMSO ([3]; 20 uM): 0.5427
Burkin Assay in Myoblasts, value relative to DMSO ([3]; 40 uM): 0.2179

O=C(NCCc1ccc(F)cc1)N[C@@H](Cc1ccccc1)C(=O)O [MLS001214704-01]
fold induction at 5 µM [1]: 0.885
fold induction at 10 µM [1]: 1.28
fold induction at 20 µM [1]: 0.933
fold induction at 40 µM [1]: 0.914
fold induction at 0.5 µM ([2]; 0.5 uM, read-out: Burkin Assay in Myotubes (signal relative to DMSO)): 0.976
fold induction at 1 µM ([2]; 1 uM, read-out: Burkin Assay in Myotubes (signal relative to DMSO)): 1.11
fold induction at 5 µM ([2]; 5 uM, read-out: Burkin Assay in Myotubes (signal relative to DMSO)): 1.07
fold induction at 10 µM ([2]; 10 uM, read-out: Burkin Assay in Myotubes (signal relative to DMSO)): 1.11
fold induction at 20 µM ([2]; 20 uM, read-out: Burkin Assay in Myotubes (signal relative to DMSO)): 1.06
fold induction at 40 µM ([2]; 40 uM, read-out: Burkin Assay in Myotubes (signal relative to DMSO)): 1.16
fold induction at 0.5 µM ([3]; 0.5 uM, read-out: Burkin Assay in Myoblasts, value relative to DMSO): 1.11
fold induction at 1 µM ([3]; 1 uM, read-out: Burkin Assay in Myoblasts, value relative to DMSO): 1.3
fold induction at 5 µM ([3]; 5 uM, read-out: Burkin Assay in Myoblasts, value relative to DMSO): 1.08
fold induction at 10 µM ([3]; 10 uM, read-out: Burkin Assay in Myoblasts, value relative to DMSO): 1.19
fold induction at 20 µM ([3]; 20 uM, read-out: Burkin Assay in Myoblasts, value relative to DMSO): 0.985
fold induction at 40 µM ([3]; 40 uM, read-out: Burkin Assay in Myoblasts, value relative to DMSO): 1.05

CCS(=O)(=O)N1CCCC(C(=O)c2ccc(OC)cc2C)C1 (stereo not shown) [MLS000693747-01]
CMV-LACZ in Myotubes (β-galactosidase activity relative to DMSO) ([1]; 5 uM): 0.9962
CMV-LACZ in Myotubes (β-galactosidase activity relative to DMSO) ([1]; 10 uM): 0.9523
CMV-LACZ in Myotubes (β-galactosidase activity relative to DMSO) ([1]; 20 uM): 0.9693
CMV-LACZ in Myotubes (β-galactosidase activity relative to DMSO) ([1]; 40 uM): 1.043
Burkin Assay in Myotubes (signal relative to DMSO) ([2]; 0.5 uM): 1.061
Burkin Assay in Myotubes (signal relative to DMSO) ([2]; 1 uM): 0.7194
Burkin Assay in Myotubes (signal relative to DMSO) ([2]; 5 uM): 1.433
Burkin Assay in Myotubes (signal relative to DMSO) ([2]; 10 uM): 0.9111
Burkin Assay in Myotubes (signal relative to DMSO) ([2]; 20 uM): 1.122
Burkin Assay in Myotubes (signal relative to DMSO) ([2]; 40 uM): 1.0456
Burkin Assay in Myoblasts, value relative to DMSO ([3]; 0.5 uM): 1.114
Burkin Assay in Myoblasts, value relative to DMSO ([3]; 1 uM): 1.036
Burkin Assay in Myoblasts, value relative to DMSO ([3]; 5 uM): 1.0596
Burkin Assay in Myoblasts, value relative to DMSO ([3]; 10 uM): 1.088
Burkin Assay in Myoblasts, value relative to DMSO ([3]; 20 uM): 0.8796
Burkin Assay in Myoblasts, value relative to DMSO ([3]; 40 uM): 0.9175

Cc1nc2c(cnn2-c2ccccc2)c(=O)n1/N=C/c1ccccc1 [MLS000860538-01]
CMV-LACZ in Myotubes, signal relative to DMSO ([1]; 5 uM): 1.001
CMV-LACZ in Myotubes, signal relative to DMSO ([1]; 10 uM): 0.9613
CMV-LACZ in Myotubes, signal relative to DMSO ([1]; 20 uM): 1.017
CMV-LACZ in Myotubes, signal relative to DMSO ([1]; 40 uM): 0.9667
Burkin Assay in Myotubes, α7 integrin LacZ reporter signal relative to DMSO ([2]; 0.5 uM): 0.985
Burkin Assay in Myotubes, α7 integrin LacZ reporter signal relative to DMSO ([2]; 1 uM): 1.102
Burkin Assay in Myotubes, α7 integrin LacZ reporter signal relative to DMSO ([2]; 5 uM): 1.319
Burkin Assay in Myotubes, α7 integrin LacZ reporter signal relative to DMSO ([2]; 10 uM): 1.412
Burkin Assay in Myotubes, α7 integrin LacZ reporter signal relative to DMSO ([2]; 20 uM): 0.9635
Burkin Assay in Myotubes, α7 integrin LacZ reporter signal relative to DMSO ([2]; 40 uM): 0.9403
Burkin Assay in Myoblasts, signal relative to DMSO ([3]; 0.5 uM): 1.02
Burkin Assay in Myoblasts, signal relative to DMSO ([3]; 1 uM): 1.033
Burkin Assay in Myoblasts, signal relative to DMSO ([3]; 5 uM): 1.078
Burkin Assay in Myoblasts, signal relative to DMSO ([3]; 10 uM): 1.115
Burkin Assay in Myoblasts, signal relative to DMSO ([3]; 20 uM): 0.958
Burkin Assay in Myoblasts, signal relative to DMSO ([3]; 40 uM): 0.9783

CC(C)(C)n1cnc2cc(NC(=O)c3ccco3)ccc21 [MLS001223567-01]
CMV-LACZ in Myotubes, signal relative to DMSO ([1]; 5 uM): 1.002
CMV-LACZ in Myotubes, signal relative to DMSO ([1]; 10 uM): 0.8931
CMV-LACZ in Myotubes, signal relative to DMSO ([1]; 20 uM): 1.241
CMV-LACZ in Myotubes, signal relative to DMSO ([1]; 40 uM): 1.012
Burkin Assay in Myotubes, α7 integrin LacZ reporter signal relative to DMSO ([2]; 0.5 uM): 0.9533
Burkin Assay in Myotubes, α7 integrin LacZ reporter signal relative to DMSO ([2]; 1 uM): 0.9978
Burkin Assay in Myotubes, α7 integrin LacZ reporter signal relative to DMSO ([2]; 5 uM): 0.8636
Burkin Assay in Myotubes, α7 integrin LacZ reporter signal relative to DMSO ([2]; 10 uM): 0.924
Burkin Assay in Myotubes, α7 integrin LacZ reporter signal relative to DMSO ([2]; 20 uM): 0.9991
Burkin Assay in Myotubes, α7 integrin LacZ reporter signal relative to DMSO ([2]; 40 uM): 0.9931
Burkin Assay in Myoblasts, signal relative to DMSO ([3]; 0.5 uM): 1.044
Burkin Assay in Myoblasts, signal relative to DMSO ([3]; 1 uM): 1.082
Burkin Assay in Myoblasts, signal relative to DMSO ([3]; 5 uM): 0.9608
Burkin Assay in Myoblasts, signal relative to DMSO ([3]; 10 uM): 0.9203
Burkin Assay in Myoblasts, signal relative to DMSO ([3]; 20 uM): 0.8579
Burkin Assay in Myoblasts, signal relative to DMSO ([3]; 40 uM): 0.864
